Marks after values point to notes of the source that are not given here.
Columns and labels:
thrombus [1] = test: In vivo anti-thrombus experiment (arteriovenous cannula with thread); design: species or system SD rats; conditions: n = 11
Procedure: SD rats (male, 220 to 230 g) were randomly divided into groups with 11 rats in each group. The rats were fed at a resting state for 1 day and fasted overnight. […] After 30 min, the rats were anesthetized with a 20% urethane solution, and the right carotid artery and the left carotid vein were dissected. A cannula was filled with sodium heparin in normal saline, and one end thereof was inserted into the left vein, while the other end was injected with a certain amount of sodium heparin for anticoagulation with an injector and then inserted into the right artery. Blood flew from the right artery to the left vein through the polyethylene tubing, and the thread attached with thrombus was taken out after 15 min and the weight thereof was recorded. The wet thrombus weight was determined by subtracting the thread weight from the total weight.

[2] = tested on: thrombus from rat arterial blood; test: In vitro thrombolysis; design: species or system SD rats; conditions: 100 nM, 2 h at 37° C., n = 6
Procedure: SD rats (male, 350 to 400 g) were anaesthetized by intraperitoneal injection of a urethane solution at a dosage of 1200 mg/kg. The anaesthetized rats were fixed in a supine position, and the right common carotid artery was dissected, clamped at the proximal end with an arterial clip, and penetrated with a suture at the proximal and distal ends, respectively. The suture at the distal end is clipped tightly by a hemostatic clamp at the fur. Cannulation was performed at the distal end, the artery clamp was removed, and the total arterial blood was discharged into a 50 ml container previously treated with silicone oil. […] rat arterial blood was injected into a vertically fixed glass tube (20 mm in length, with an inner diameter of 4 mm and an outer diameter of 5 mm, sealed with a rubber stopper at the bottom), into which was immediately inserted a thrombus immobilization screw made of stainless steel. […] 40 min after the blood was coagulated, the rubber stopper at the bottom of the glass tube was removed, the stem of the thrombus immobilization screw was nipped by forceps, and the thrombus-wrapped thrombus immobilization screw was carefully taken out from the glass tube. The screw was then suspended and dipped in triple-distilled water to remove excessive blood, and accurately weighed after 1 h. The thrombus was suspended in 8 mL of normal saline, or a solution of compounds Ia-Il in normal saline (at a concentration of 100 nM), or a solution of ARPAK (SEQ. ID NO. 4), GRPAK (SEQ. ID NO. 5), RPAK (SEQ. ID NO. 3) or PAK in normal saline (at a concentration of 100 nM), or a solution of urokinase in normal saline (100 IU/mL), then shaked at 37° C. in a thermostatic shaker (63 r/min), and removed after 2 h and accurately weighed to determine the weight of the thrombus.

rats with stroke [3] = test: Cerebral infarction volume after immediate treatment of stroke (TTC staining); assay type: in vivo, SD rats; conditions: 1 μmol/kg; immediate treatment; n = 10
Procedure: After the rats were awake for 24 h and assessed for their degree of damage in neural function in Experimental example 6, they were anesthesized with urethane followed by immediate decapitation and removal of the brain. Brain tissues were kept in a −20° C. refrigerator for 2 h, and coronal sections of about 2 mm were successively sliced from the prefrontal end for a total of 6 sections, and then placed into a 2% TTC solution to incubate in darkness at 37° C. for 30 min. The color change in brain sections was observed: normal brain tissues were stained red by TTC, while ischemic brain tissues, i.e., brain tissues with infracts, appeared in a white color. Photographs were taken by using a digital camera and processed with SPSS statistics software, and the volume of infarction in brain tissues and the volume of normal brain tissues in the coronal sections were calculated.

thrombus [4] = test: In vivo thrombolysis, rat arteriovenous bypass thrombolysis model; design: species or system SD rats; conditions: 1 μmol/kg, after 1 h, n = 10
Procedure: SD rats (male, 220 to 230 g) were anaesthetized by intraperitoneal injection of a urethane solution at a dosage of 1200 mg/kg. The anaesthetized rats were fixed in a supine position, and the right common carotid artery was dissected, clamped at the proximal end with an arterial clip, and penetrated with a suture at the proximal and distal ends, respectively. The suture at the distal end is clipped tightly by a hemostatic clamp at the fur. Cannulation was performed at the distal end, the arterial clamp was removed, and about 1 ml arterial blood was discharged into a 1 ml eppendorf. 0.1 ml rat arterial blood was injected into a vertically fixed glass tube (15 mm in length, with an inner diameter of 2.5 mm and an outer diameter of 5.0 mm, sealed with a rubber stopper at the bottom), into which was immediately inserted a thrombus immobilization screw made of stainless steel. […] 15 min after the blood was coagulated, the rubber stopper at the bottom of the glass tube was removed, the stem of the thrombus immobilization screw was nipped by forceps, and the thrombus-wrapped thrombus immobilization screw was carefully taken out of the glass tube and then accurately weighed.
A bypass cannula was composed of 3 segments. The middle segment was a polyethylene tubing having a length of 60.0 mm and an inner diameter of 3.5 mm. The segments on both ends were similar polyethylene tubes having a length of 100.0 mm, an inner diameter of 1.0 mm and an outer diameter of 2.0 mm, one end of which was pulled to form a tip, with an outer diameter of 1.0 mm, that could be inserted into the rat carotid artery or vein, and the other end of which was sheathed by a polyethylene tube having a length of 7.0 mm and an outer diameter of 3.5 mm (thickened in order to be inserted into the polyethylene tubing of the middle segment). The inner wall of the 3-segment cannula was entirely silylated (with 1% silicone oil in ethyl ether). The thrombus-wrapped thrombus immobilization screw was placed into the polyethylene tubing of the middle segment, and both ends of the tubing sheathed the thickened ends of the two polyethylene tubes. The cannula was filled with a heparin solution in normal saline (50 IU/kg) through the tip end by using an injector and was ready for use. The trachea of the anaesthetized rat was then dissected and tracheal cannulation was performed. The left external carotid vein of the rat was dissected, and penetrated with a suture at the proximal and distal ends, respectively. An uneven open incision was careful made on the exposed left external carotid vein, and the tip of the bypass cannula prepared as described above was inserted into the proximal end of the open incision in the left external carotid vein, away from the stem of the thrombus immobilization screw in the middle segment of the bypass cannula (which accommodated the accurately weighed thrombus immobilization screw). A precise amount of heparin in saline (50 IU/kg) was injected through the tip at the other end by using an injector. At this moment, without removing the injector from the ethylene tube, the tubing between the injector and the polyethylene tube was clamped with forceps. The blood flow was stopped by clamping the proximal end of the right common carotid artery with an arterial clip, and an uneven open incision was cut carefully across the common carotid artery near the clip. The injector was pulled out of the tip of the polyethylene tube, and the tip of the polyethylene tube was then inserted into the proximal end of the artery open incision. Both ends of the bypass cannula were fixed to the artery or vein with #4 sutures. […]

rats with stroke [5] = test: Immediate treatment after stroke onset, neural function scores (Zealonga method, 0 no loss to 5 death); assay type: in vivo, SD rats; conditions: 1 μmol/kg, 24 h after awake
Procedure: The in vivo anti-stroke activity of the present invention was represented by neural function scores, with a lower score indicating higher activity. A 10% chloral hydrate solution (400 mg/kg) was injected intraperitoneally into SD male rats (250-300 g) for anesthesia. An open incision of 2 cm in length was longitudinally made slightly on the right to the center of the neck, and the right common carotid artery trunk, carotid external artery and carotid internal artery were dissected along the margin of the inner side of sternocleidomastoid muscles. The open incisions in the carotid internal artery and the proximal end of the common carotid artery were occluded respectively with noninvasive arterial clips. A small open incision was made across the carotid external artery, and the distal end of the carotid external artery was ligated. The arterial clip at the proximal end of the carotid external artery was released, and 10 μl blood was drawn before the proximal end of the common carotid artery was again occluded with the noninvasive arterial clip. The 10 μl blood drawn was placed in a 1 mL EP vial and kept at RT for 30 min for coagulation of blood, and then transferred into a −20° C. refrigerator for 1 h to allow coagulation. After 1 h, the blood clots were taken out, into which 1 mL saline was added, and then broken into uniform microthrombus by using a steel spatula. The microthrombus suspension was then transferred to a 1 mL injector until use. At the same time when the clip on the carotid internal artery of the rat was released, 1 mL thrombus suspension in the injector was slowly injected from the carotid external artery of the rat to its proximal end, and the suspension was injected into the brain of the rat through the carotid internal artery. Subsequently, the proximal end of the carotid external artery was ligated, the arterial clips on the carotid internal artery and the common carotid artery were released, and blood flow was restored. The jugular common vein of the rats was dissected. The vein was immediately ligated, 3 drops of penicillin was dropped at the wound site, the wound was stitched up, and the animals were allowed to come around, as the sham operation group. Or injection of urokinase in normal saline (positive control group, at a dosage of 20000 IU/kg), normal saline (blank control group, at a dosage of 3 ml/kg), TMMZ in normal saline (component control group, at a dosage of 1 μmol/kg), a thrombolytic peptide ARPAK (SEQ. ID NO. 4), GRPAK (SEQ. ID NO. 5), RPAK (SEQ. ID NO. 3) or PAK in normal saline (component control group, at a dosage of 1 μmol/kg), or one of compounds Ia-Il in normal saline (at a dosage of 0.1 μmol/kg) was carried out. 24 h after the rats were awake, the degree of damage in the neural function was evaluated by the Zealonga method. A score of 0 indicated no sign of loss in neural function, 1 indicated the front limbs on the undamaged side could not stretch out, 2 indicated walking toward the undamaged side, 3 indicated tail-chasing walking in circles toward the undamaged side, 4 indicated involuntary walking with disturbance of consciousness, and 5 indicated death.

[6] = tested on: NO free radicals (acetylcholine induced vasodilation); test: NO radical scavenging: inhibition of acetylcholine induced vasodilation of aorta rings; design: species or system Wistar rats; conditions: final concentration 5×10^−6 M; n = 6
Procedure: Male Wistar rats weighing 250 to 300 g were starved for 12 h before operation with free access to drinking water, and sacrificed by cervical dislocation. Thoracotomy was immediately carried out and thoracic aorta was taken out, connective tissues attached thereto were dissected, and vessels were cut into aorta rings with a length of 3 to 5 mm and placed into a perfusion bath. The bath contained 15 ml Krebs-Henseleit solution and was kept at a constant temperature of 37° C., into which 95% O2-5% CO2 gas was charged. The anchor to which the aorta rings were immobilized was connected to a tension transducer, and vasomotion curves were recorded on a dual-trace recorder at a paper speed of 1 mm/min. With the static tension adjusted to 1.0 g and 30 min of equilibration, norepinephrine at a final concentration of 10^−8 M was dosed to allow the aorta to contract for preexcitation. Norepinephrine was washed off, followed by 30 min of equilibration, and norepinephrine was added into the bath to a final concentration of 10^−8 M. When the contraction tension was steady at a plateau level, 20 μl normal saline (blank), a 20 μl solution of any one of compounds Ia to Il in normal saline (at a final concentration of 5×10^−6 M), or a 20 μl solution of NO free radical scavenger (1,3-dioxo-2-(4′-oxyacetoxyl-phenyl)-4,4,5,5-tetramethylimidazoline, TMMZ) in normal saline (at a final concentration of 5×10^−6 M) was added into the bath. When stabilized, a 20 μl acetylcholine in normal saline was added (at a final concentration of 10^−6 M). The NO scavenging ability of the drugs was expressed as a percentage of inhibition of acetylcholine induced vasodilation.

Compound | Weight reduction in thrombus (Mean ± SD mg) [2] [mg] | Percentage of infarction volume (Mean ± SD %) (rats with stroke [3]) | Weight reduction in thrombus (Mean ± SD mg) (thrombus [4]) [mg] | Wet weight of thrombus (Mean ± SD mg) (thrombus [1]; 10 μmol/kg by gavage) [mg] | further results
CC(=O)Oc1ccccc1C(=O)O [aspirin, reference compound] |  |  |  |  | Wet weight of thrombus (Mean ± SD mg) (thrombus [1]; aspirin 33 mg/kg by gavage): 12.85 ± 2.49 ^a mg
Ala-Arg-Pro-Ala-Lys (ARPAK) [ARPAK (SEQ. ID NO. 4), thrombolytic peptide, component control, reference compound] | 26.35 ± 3.10 | 22.00 ± 2.20 ^a % | 15.20 ± 2.55 |  | 
Arg-Gly-Asp-Phe (RGDF) [RGDF (SEQ. ID NO. 13), targeting peptide, reference compound] |  |  |  | 19.55 ± 2.21 | 
Arg-Pro-Ala-Lys (RPAK) [RPAK (SEQ. ID NO. 3), thrombolytic peptide, component control, reference compound] | 26.01 ± 3.11 | 22.11 ± 2.25 ^a % | 15.67 ± 2.61 |  | Neural function scores (Mean ± SD) (rats with stroke [5]; n = 10): did not exhibit anti-stroke activity; Neural function scores (Mean ± SD) (rats with stroke [5]; n = 10, listed as RPAKI (SEQ. ID NO. 3)): 2.38 ± 0.97 ^a
Arg-Gly-Asp-Val (RGDV) [RGDV (SEQ. ID NO. 12), targeting peptide, reference compound] |  |  |  | 21.26 ± 2.07 | 
Arg-Gly-Asp-Ser (RGDS) [RGDS (SEQ. ID NO. 11), targeting peptide, reference compound] |  |  |  | 20.02 ± 2.35 | 
CC1(C)N([O])C(c2ccc(OCC(=O)O)cc2)=[N+]([O-])C1(C)C [TMMZ, 1,3-dioxo-2-(4′-oxyacetoxy-phenyl)-4,4,5,5-tetramethylimidazoline, reference compound] |  | 22.96 ± 2.43 ^a % |  |  | Neural function scores (Mean ± SD) (rats with stroke [5]; n = 10): 2.83 ± 0.75 ^a; Percentage of inhibition (Mean ± SD %) of vasodilatation induced by acetylcholine [6]: 15.47%
Pro-Ala-Lys [PAK, reference compound] | 26.67 ± 3.20 | 22.07 ± 2.40 ^a % | 15.00 ± 2.61 |  | 
Gly-Arg-Pro-Ala-Lys (GRPAK) [GRPAK (SEQ. ID NO. 5), thrombolytic peptide, component control, reference compound] | 15.47 ± 2.61 | 21.77 ± 2.46 ^a % | 15.47 ± 2.61 |  | 
